Test system: AMPK
Assay: AMPK phosphorylation (pAMPK) in myocytes (Western blotting)
Assay type: cell-based
Source text: During fasting or exercising, myocytes are depleted of energy, which causes a decrease in ATP production and an increase in AMP production. It is well known that, in this case, cells activate AMPK signaling to increase cellular homeostasis against metabolic stress. To evaluate a metabolic function regulating effect of Lactobacillus bacteria-derived vesicles, myocytes were each treated with Lactobacillus paracasei-derived vesicles (MDH-001-CM) and Lactobacillus rhamnosus-derived vesicles (MDH-003-CM) at concentrations of 0, 0.1, 1, and 10 μg/ml for 1 hour. Afterwards, the degree of AMPK phosphorylation (pAMPK), an indicator of AMPK signaling, was measured by Western blotting. As control drugs, 1 μM insulin and 50 mM metformin were used.

Compound | phosphorylation of AMPK (pAMPK) (50 mM metformin) | phosphorylation of AMPK (pAMPK) (1 μM insulin)
CN(C)C(=N)N=C(N)N [metformin] | increased | 
insulin |  | inhibited

— patent publication US20240358779A1, “EXTRACELLULAR VESICLES DERIVED FROM LACTOBACILLUS BACTERIA, AND USE THEREOF” (MD HEALTHCARE INC., priority 2021, published 2024)
